Source: a melting point compilation (Tetko et al.; mined from patent text by program, amines drawn as free bases though some values may be those of a salt)

SMILES | melting point [°C]
N#Cc1c(SC(F)(F)F)c(N)n(-c2ccc(C(F)(F)F)cc2)c1Br | 152
O=C1N=NC(=O)c2c1[nH]c1cc(Br)cc(Br)c21 | > 400
CC(C)Nc1nc(NN)nc(Cl)c1-c1c(F)cc(F)cc1F | 143 to 150
Cc1ccccc1-c1ccc(C(=O)N2Cc3ccc(C(=O)NCCc4ccc5c(c4)OCO5)n3Cc3ccccc32)cc1C | 154 to 157
O=C1N(Cc2cccc(C(F)(F)F)c2)c2ccccc2C12COc1cc3c(cc12)OCCO3 (stereo not drawn) | 131 to 134
Cc1[nH]cnc1CN1CCc2c(c3cccc(F)c3n2C)C1 | 188 to 190
Clc1ccc(-n2cccn2)cc1 | 50 to 53
O=[N+]([O-])c1cccn2nc(SCc3ccccc3)nc12 | 125 to 126
COc1cc(C)c(N)c(C)c1C | 70 to 72
Oc1ccc2c(c1)CCC(n1cc[nH]c1=S)C2 (stereo not drawn) | 240 to 241
COC(=O)CCC(=NOCc1ccc(OCCc2nc(-c3ccccc3)oc2C)cc1)c1ccccc1 | 73 to 74
CC(C)(C)c1ccc(C=CC(=O)c2ccc(N3CCN(c4ccncc4)CC3)cc2)cc1 | 213 to 214
Oc1ccc2oc(-c3ccc(O)c(F)c3)cc2c1 | 218 to 222
O=C(CCC=C(c1ccccc1)c1ccccc1)NCCCCn1ccnc1 | 102 to 103
COc1ccc(-c2ccc3cc(CO)ccc3c2)cc1C12CC3CC(CC(C3)C1)C2 | 169 to 171
CC1(C)CCC(C)(C)c2cc(-c3cc(-c4ccc(C(N)=O)cc4-c4ccc(O)cc4)ccc3-c3ccccc3)ccc21 | 231
c1csc(-c2cccc3c(-c4cccs4)cccc23)c1 | 193 to 195
COc1c(O)cc(C)c(OC(=O)c2ccccc2)c1OC | 109 to 111
Cc1cc(C)c(Nc2nc(C)ccc2S(=O)(=O)c2ccc(OCc3cc(Cl)nc(Cl)c3)cc2)c(C)c1 | 192 to 201
CN=C(NS(=O)(=O)c1ccc(Cl)cc1)C1=NN(c2ccc(Cl)cc2Cl)C(c2ccccc2)C1 (stereo not drawn) | 128 to 130
CC1(C(=O)O)OCCC2=CC3=CC=CCC3=C21 (stereo not drawn) | 171 to 173
CC(C)(C)[Si](C)(C)OC1CCN(S(=O)(=O)c2ccc(N3CCCCC3)cc2)C1=O (stereo not drawn) | 111 to 112
CCNc1ccc(F)cc1OCc1ccccc1 | 58 to 59
Nc1ncc(Br)c(NCC2(CO)CCC2)n1 | 156 to 158
O=C(O)C1=Cc2cc(-c3ccc(F)cc3)ccc2CC1 | 213 to 214

SMILES | melting point [°C]
Cc1n[nH]c2cc(-c3nn(C(C)c4oc5ccc(F)cc5c(=O)c4-c4cccc(F)c4)c4ncnc(N)c34)ccc12 (stereo not drawn) | 234 to 236
Nc1cc(N2C(=O)C3=C(CCCC3)C2=O)c(F)cc1Cl | 164 to 165
CC(C)N(CCC(=O)OC1c2ccccc2C(=O)N1c1ccc2ccc(Cl)nc2n1)C(C)C (stereo not drawn) | 135
O=C=Nc1ccc(S(=O)(=O)Cl)cc1 | 50 to 52
CN(Cc1ccc(Cl)nc1)C(N)=N[N+](=O)[O-] | 158
Nc1n[nH]cc1-c1cccc(N2CCC(N3CCCC3)CC2)c1 | 214 to 216
CCSc1nc(=O)[nH]cc1F | 168
CCOCc1nc(N)c2nccnc2n1 | 152 to 154
Cc1cc(-c2nc[nH]n2)ccc1-c1cnc2[nH]c(=O)n(CCC3CCOCC3)c2n1 | 258 to 260
CCOC(=O)N1CCC(=C2c3ccc(Cl)cc3SCc3cccnc32)CC1 | 154 to 157
O=C(Cl)N1c2ccccc2C=Cc2ccccc21 | 145 to 150
CCCc1c(C(=O)N(C)Cc2ccc3c(Br)c(O)ccc3c2)cnn1-c1ccccc1 | 205 to 207
CCOc1ccc(-c2ccc3c(c2)C=C(C(=O)Nc2ccc(CN(C)C4CCOCC4)cc2)CCS3(=O)=O)cc1Cl | 201 to 204
Oc1ccc(C2(c3ccc(O)c(F)c3)c3ccccc3-c3ccccc32)cc1F | 219 to 221
O=C(O)Cc1ccc(CNC(=O)C2Cc3ccccc3N2S(=O)(=O)c2ccc(-c3cccc(C(F)(F)F)c3)cc2)c(Cl)c1 (stereo not drawn) | 95 to 106
O=C(CCc1ccc(OCc2ccccc2)cc1)c1ncc(-c2ccccn2)o1 | 99 to 100
C=Cc1cc(NC(=O)N2CCN(c3cc(C)cc(C)c3)CC2)c(OC)nc1C | 131 to 132
Cc1ccc(C(O)=C(C#N)C(=O)C(C)(C)C)c([N+](=O)[O-])c1 | 99 to 102
COC(=O)c1ccc2oc(-c3ccccc3OC(C)C)cc(=O)c2c1 | 154 to 155
COc1ccc(Cl)cc1C(CC(=O)O)c1ccccc1 (stereo not drawn) | 144
O=C(O)C(=O)CC(=O)c1ccc(C2CCCCC2)cc1 | 140 to 142
Cc1cc(-n2cc(-c3ccc(S(C)=O)cc3)nc2C)cc2ccc(=O)[nH]c12 (stereo not drawn) | 313 to 315
CCNC(=O)n1nc(Oc2ccc([N+](=O)[O-])cc2)cc1C | 105 to 107
O=C(O)Cc1c(C(=O)O)c2cc(Oc3ccc(OC(F)(F)F)cc3)ccc2n1-c1ccc(N2CCCCC2)cc1 | > 200
COC(=O)c1nc2cccc(OC)c2c(O)c1C(=O)OC | 184 to 186

SMILES | melting point [°C]
O=C(NC(=O)N1CCC(Cc2ccccc2)CC1)c1ccc2[nH]c(=O)oc2c1 | 174
CC1CCC(Oc2cc(F)cc(C(=O)Nc3ccc(OCCN4CCOCC4)c4ccccc34)c2)CC1 (stereo not drawn) | 98 to 100
CCCCC(C)(C)C=CC(OC(C)=O)C1C(C)CC2OC(=O)CC21 (stereo not drawn) | 83 to 83.5
COc1cccc2c(=O)cc(N3CCOCC3)oc12 | 165
Cc1nc2cccc(O)c2o1 | 152 to 154
N#Cc1ccc(C(=O)NC(=S)NC2CCCCC2)cc1 | 136 to 137
CCCC(CCC)C(=O)O/N=C(\C)[C@H]1CC[C@H]2[C@@H]3CCC4=CC(=O)CC[C@]4(C)[C@H]3CC[C@]12C | 78 to 80
CC(Cc1c[nH]c2ccccc12)(NC(=O)OC1C2CC3CC(C2)CC1C3)C(=O)NCCc1cccc(NC(=O)CCC(=O)O)c1 (stereo not drawn) | 78 to 82
CC1CCCC1(O)c1ccc(C#N)c2ccccc12 (stereo not drawn) | 121 to 122
O=c1[nH]c2ccccc2c(=O)n1CCS | 193 to 195
COc1ccc(NC(=O)N2CCN(CCc3ccc(-c4cccc(N)n4)cc3)CC2)cc1 | 182 to 184
Cc1cc(N2CCC(CN3CCN(S(=O)(=O)c4ccc(Cl)cc4)CC3)CC2)nc(C)n1 | 73 to 74
NS(=O)(=O)c1ccc(OC2CCCCO2)s1 (stereo not drawn) | 90 to 92
COc1ncc(C)cc1Nc1cc(C#N)c2c(c1)[C@@H]1CNCC[C@@H]1N2C | 76 to 80
C#CC(C)Oc1cc(-c2nn3c(c2Cl)CCCC3)c(F)cc1Cl (stereo not drawn) | 116 to 120
N#Cc1cc(NC(=O)c2ccn(-c3ccc(F)cc3)c2)ccc1N1CCN(C2CCOCC2)CC1 | 240
O=C1c2ccc(O)cc2OCN1CCO | 182 to 184
COC(=O)c1c(C(=O)NC(C)(C(N)=O)C(C)C)cccc1[N+](=O)[O-] (stereo not drawn) | 100 to 107
Nc1cccc(S(=O)(=O)C(F)(F)C(F)Cl)c1 (stereo not drawn) | 66 to 67.5
O=C(CS(=O)(=O)C(c1ccc(Cl)cc1)c1ccc(Cl)cc1)C(F)(F)F | 60 to 62
C[C@H](C(=O)O)[C@H](O)CCCCc1ccccc1 | 75 to 77
COc1cc(CNc2nc(C)nc(C)c2Cl)ccc1Oc1ccc2ncc([N+](=O)[O-])n2n1 | 229 to 232
CCC(=O)c1c[nH]c2c(OC)cccc2c1=O | 260 to 263
COC(=O)N1CCc2ccc3cc[nH]c3c2CC1 | 169 to 171
COc1ccc(C2Nc3ccc(Cl)cc3C(C#CC3CC3)(C(F)(F)F)O2)cc1OC (stereo not drawn) | 172 to 175

SMILES | melting point [°C]
COc1ccc(Cc2cc(I)ccc2OC)cn1 | 68 to 70
O=C(Nc1cccc(-c2ncno2)c1)Oc1ccc([N+](=O)[O-])cc1 | 195 to 197
O=C(Nc1ccc(C(=O)N2C[C@@H]3CCCN3c3ccccc32)cc1)c1ccccc1-c1ccccc1 | 200
CN1CCC(c2c[nH]c3ccc(NC(=O)c4cc5ccccc5s4)nc23)CC1 | 202 to 204
O=[N+]([O-])c1ccc(C2OCCc3cc4c(cc32)OCO4)cc1 (stereo not drawn) | 149 to 150
O=C(O)c1ccccc1SCCCOc1ccc(CCc2ccncc2)cc1 | 151 to 153
CC(C)(C)OC(=O)NCCNC(=O)c1n[nH]cc1-c1ccccc1 | 71
CCc1c(-c2ccc(O)cc2)c2c(COC)cc3cccc1n32 | > 130
Oc1ccc(Oc2ccc(O)c(Br)c2)cc1Br | 106
COc1ccc([C@H](CC(=O)O)N2CCN(CCCc3ccc4c(n3)NCCC4)C2=O)cn1 | 122
COCCN(CC1=CCC(N)(Oc2ccccc2)C=C1)C(=O)C(Cl)Cl (stereo not drawn) | 100 to 102
COc1c(N2CCC(NC3CC3)C(C)C2)c(F)c(N)c2c(=O)c(C(=O)O)cn(C3CC3)c12 (stereo not drawn) | 218 to 220
Cc1cn(C)cc(-c2cccc(C(F)(F)F)c2)c1=O | 130 to 131
C[C@@H]1NCC[C@@H]1C(C)(C)O | 120 to 122
CCCOCCN(C)c1ccc(-c2ccc3c(c2)C=C(C(=O)Nc2ccc(CN(C)C4CCOCC4)cc2)CCS3(=O)=O)cc1 | 193 to 194
COC(c1ccccc1Cl)c1cc(Cl)ccc1-c1c(C(=O)O)cnn1C (stereo not drawn) | 210 to 213
CC(C)(C)C(NC(=O)c1cccc(-c2ccccc2)c1)Nc1c(Nc2cccnc2)c(=O)c1=O (stereo not drawn) | 240 to 241
CN(C(=O)NCCO)C1c2ccccc2Oc2ccccc21 | 130 to 132
Cc1cc(O)c(C23CC4CC(CC(C4)C2)C3)cc1Br | 155 to 156
C=CCc1cccc(CC(NC(C)=O)C(=O)OCc2ccccc2)c1 (stereo not drawn) | 55 to 56.5
COc1ccc(CN2C(=O)[C@@H](N3C(=O)c4ccccc4C3=O)[C@H]2CCc2ccccc2)c(OC)c1 (relative stereo) | 148 to 150
COc1ccc(Cl)c(Oc2c(Cl)nc(C)nc2NS(=O)(=O)c2ccc(C(C)(C)C)cc2)c1 | 182
O=S(=O)(NCCCCCOc1ccc(-n2ccnc2)cc1)c1ccc(Br)cc1 | 137 to 138
